Results as given in the supplement of paper PMC10307832.

How the values were obtained:
Assay in all cases: relative viability (nuclei count vs DMSO), 5 days (fraction); higher = more cells survive
NCI-H650 = system: NCI-H650
Method in brief: (§1)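 Relative viability equals treated-well nuclei counts divided by vehicle-well nuclei counts. Counts came from 4× images of lung cancer cell lines grown in 1536-well plates for 5 days after pin-tool dosing on the day after seeding. Dosing used one drug alone or a fixed anchor-drug dose plus five library-drug doses (not always all listed) in √10 steps, and values are medians of duplicate plates.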

NCI-H1651 = system: NCI-H1651
Method in brief: as §1

HOP-62 = system: HOP-62
Method in brief: as §1

COR-L23 = system: COR-L23
Method in brief: as §1

NCI-H2023 = system: NCI-H2023
Method in brief: as §1

EPLC-272H = system: EPLC-272H
Method in brief: as §1

UMC-11 = system: UMC-11
Method in brief: as §1

PC-14 = system: PC-14
Method in brief: as §1

NCI-H2085 = system: NCI-H2085
Method in brief: as §1

SW 1573 = system: SW 1573
Method in brief: as §1

HARA = system: HARA
Method in brief: as §1

NCI-H838 = system: NCI-H838
Method in brief: as §1

NCI-H2126 = system: NCI-H2126
Method in brief: as §1

LU99A = system: LU99A
Method in brief: as §1

NCI-H1993 = system: NCI-H1993
Method in brief: as §1

NCI-H1355 = system: NCI-H1355
Method in brief: as §1

ABC-1 = system: ABC-1
Method in brief: as §1

LC-2-ad = system: LC-2-ad
Method in brief: as §1

NCI-H1915 = system: NCI-H1915
Method in brief: as §1

NCI-H2347 = system: NCI-H2347
Method in brief: as §1

HCC-44 = system: HCC-44
Method in brief: as §1

NCI-H358 = system: NCI-H358
Method in brief: as §1

HCC-15 = system: HCC-15
Method in brief: as §1

Compound `CCN(CC)CCCCNc1ncc2cc(-c3cc(OC)cc(OC)c3)c(NC(=O)NC(C)(C)C)nc2n1` + C[C@@H](Oc1cc(-c2cnn(C3CCNCC3)c2)cnc1N)c1c(Cl)ccc(F)c1Cl [Crizotinib] (partner 1 µM) has a relative viability (NCI-H650; first compound 0.01 µM) of 0.694, a relative viability (NCI-H650; first compound 0.03162 µM) of 0.618 and a relative viability (NCI-H650; first compound 0.1 µM) of 0.863. For the same compound, the relative viability (NCI-H650; first compound 0.3162 µM) was 0.743, the relative viability (NCI-H650; first compound 1 µM) was 0.606 and the relative viability (NCI-H1651; first compound 0.01 µM) was 0.925. For the same compound, the relative viability (NCI-H1651; first compound 0.03162 µM) was 0.851, the relative viability (NCI-H1651; first compound 0.1 µM) was 0.945 and the relative viability (NCI-H1651; first compound 0.3162 µM) was 0.909. The relative viability (NCI-H1651; first compound 1 µM) was 0.828, the relative viability (HOP-62; first compound 0.01 µM) was 0.967 and the relative viability (HOP-62; first compound 0.03162 µM) was 1.14. The relative viability (HOP-62; first compound 0.1 µM) was 0.903, the relative viability (HOP-62; first compound 0.3162 µM) was 1.08 and the relative viability (HOP-62; first compound 1 µM) was 1.08. It also gave a relative viability (COR-L23; first compound 0.01 µM) of 0.697, a relative viability (COR-L23; first compound 0.03162 µM) of 0.656 and a relative viability (COR-L23; first compound 0.1 µM) of 0.824. It also gave a relative viability (COR-L23; first compound 0.3162 µM) of 0.584, a relative viability (COR-L23; first compound 1 µM) of 0.759 and a relative viability (NCI-H2023; first compound 0.01 µM) of 0.646. For the same compound, the relative viability (NCI-H2023; first compound 0.03162 µM) was 0.627, the relative viability (NCI-H2023; first compound 0.1 µM) was 0.639 and the relative viability (NCI-H2023; first compound 0.3162 µM) was 0.725. For the same compound, the relative viability (NCI-H2023; first compound 1 µM) was 0.655, the relative viability (EPLC-272H; first compound 0.01 µM) was 1.23 and the relative viability (EPLC-272H; first compound 0.1 µM) was 1.13. The relative viability (EPLC-272H; first compound 0.3162 µM) was 1.04, the relative viability (EPLC-272H; first compound 1 µM) was 0.917 and the relative viability (UMC-11; first compound 0.01 µM) was 0.691. The relative viability (UMC-11; first compound 0.03162 µM) was 0.459, the relative viability (UMC-11; first compound 0.1 µM) was 0.636 and the relative viability (UMC-11; first compound 0.3162 µM) was 0.805. The relative viability (UMC-11; first compound 1 µM) was 0.554, the relative viability (PC-14; first compound 0.01 µM) was 0.916 and the relative viability (PC-14; first compound 0.03162 µM) was 0.875. For the same compound, the relative viability (PC-14; first compound 0.1 µM) was 1.02, the relative viability (PC-14; first compound 0.3162 µM) was 1.06 and the relative viability (PC-14; first compound 1 µM) was 0.904. It also gave a relative viability (NCI-H2085; first compound 0.01 µM) of 0.983, a relative viability (NCI-H2085; first compound 0.03162 µM) of 0.917 and a relative viability (NCI-H2085; first compound 0.1 µM) of 0.943. It also gave a relative viability (NCI-H2085; first compound 0.3162 µM) of 0.895, a relative viability (NCI-H2085; first compound 1 µM) of 0.817 and a relative viability (SW 1573; first compound 0.01 µM) of 0.69. The relative viability (SW 1573; first compound 0.03162 µM) was 0.813, the relative viability (SW 1573; first compound 0.1 µM) was 1.05 and the relative viability (SW 1573; first compound 0.3162 µM) was 0.774. The relative viability (SW 1573; first compound 1 µM) was 0.722, the relative viability (HARA; first compound 0.01 µM) was 1.19 and the relative viability (HARA; first compound 0.03162 µM) was 1.03. The relative viability (HARA; first compound 0.1 µM) was 1.26, the relative viability (HARA; first compound 0.3162 µM) was 1.17 and the relative viability (HARA; first compound 1 µM) was 0.816. The relative viability (NCI-H838; first compound 0.01 µM) was 0.919, the relative viability (NCI-H838; first compound 0.03162 µM) was 0.84 and the relative viability (NCI-H838; first compound 0.1 µM) was 0.955. The relative viability (NCI-H838; first compound 0.3162 µM) was 0.79, the relative viability (NCI-H838; first compound 1 µM) was 0.552 and the relative viability (NCI-H2126; first compound 0.01 µM) was 1.08. For the same compound, the relative viability (NCI-H2126; first compound 0.03162 µM) was 0.992, the relative viability (NCI-H2126; first compound 0.1 µM) was 1.06 and the relative viability (NCI-H2126; first compound 0.3162 µM) was 1.08. It also gave a relative viability (NCI-H2126; first compound 1 µM) of 1.04, a relative viability (LU99A; first compound 0.01 µM) of 0.547 and a relative viability (LU99A; first compound 0.03162 µM) of 0.63. For the same compound, the relative viability (LU99A; first compound 0.1 µM) was 0.616, the relative viability (LU99A; first compound 0.3162 µM) was 0.583 and the relative viability (LU99A; first compound 1 µM) was 0.484. It also gave a relative viability (NCI-H1993; first compound 0.01 µM) of 0.875, a relative viability (NCI-H1993; first compound 0.03162 µM) of 0.974 and a relative viability (NCI-H1993; first compound 0.1 µM) of 0.875. For the same compound, the relative viability (NCI-H1993; first compound 0.3162 µM) was 0.985, the relative viability (NCI-H1993; first compound 1 µM) was 0.783 and the relative viability (NCI-H1355; first compound 0.01 µM) was 1.17. It also gave a relative viability (NCI-H1355; first compound 0.03162 µM) of 1.16, a relative viability (NCI-H1355; first compound 0.1 µM) of 1.05 and a relative viability (NCI-H1355; first compound 0.3162 µM) of 1.11. It also gave a relative viability (NCI-H1355; first compound 1 µM) of 1.06, a relative viability (ABC-1; first compound 0.01 µM) of 1.53 and a relative viability (ABC-1; first compound 0.03162 µM) of 1.34. It also gave a relative viability (ABC-1; first compound 0.1 µM) of 1.18, a relative viability (ABC-1; first compound 0.3162 µM) of 1.09 and a relative viability (ABC-1; first compound 1 µM) of 0.905. It also gave a relative viability (LC-2-ad; first compound 0.01 µM) of 0.834, a relative viability (LC-2-ad; first compound 0.03162 µM) of 0.503 and a relative viability (LC-2-ad; first compound 0.1 µM) of 0.49. The relative viability (LC-2-ad; first compound 0.3162 µM) was 0.488, the relative viability (LC-2-ad; first compound 1 µM) was 0.39 and the relative viability (NCI-H1915; first compound 0.01 µM) was 1.1. For the same compound, the relative viability (NCI-H1915; first compound 0.03162 µM) was 0.926, the relative viability (NCI-H1915; first compound 0.1 µM) was 0.943 and the relative viability (NCI-H1915; first compound 0.3162 µM) was 1.03. The relative viability (NCI-H1915; first compound 1 µM) was 0.935, the relative viability (NCI-H2347; first compound 0.01 µM) was 0.766 and the relative viability (NCI-H2347; first compound 0.03162 µM) was 0.62. The relative viability (NCI-H2347; first compound 0.1 µM) was 0.677, the relative viability (NCI-H2347; first compound 0.3162 µM) was 0.63 and the relative viability (NCI-H2347; first compound 1 µM) was 0.793. For the same compound, the relative viability (HCC-44; first compound 0.01 µM) was 0.775, the relative viability (HCC-44; first compound 0.03162 µM) was 0.855 and the relative viability (HCC-44; first compound 0.1 µM) was 0.853. It also gave a relative viability (HCC-44; first compound 0.3162 µM) of 0.971, a relative viability (HCC-44; first compound 1 µM) of 0.946 and a relative viability (NCI-H358; first compound 0.01 µM) of 0.639. The relative viability (NCI-H358; first compound 0.03162 µM) was 0.54, the relative viability (NCI-H358; first compound 0.1 µM) was 0.728 and the relative viability (NCI-H358; first compound 0.3162 µM) was 0.671. The relative viability (NCI-H358; first compound 1 µM) was 0.469, the relative viability (HCC-15; first compound 0.01 µM) was 0.919 and the relative viability (HCC-15; first compound 0.03162 µM) was 0.853. It also gave a relative viability (HCC-15; first compound 0.1 µM) of 0.871, a relative viability (HCC-15; first compound 0.3162 µM) of 1.25 and a relative viability (HCC-15; first compound 1 µM) of 0.699.
